Measured values from patent US10765676B2, “Trk-inhibiting compound” (ONO PHARMACEUTICAL CO., LTD., priority 2013, dated 2020).

System: sodium monoiodoacetate-induced model rats
Assay: Analgesic effect on sodium monoiodoacetate-induced model rats
Format: in vivo, rat
Conditions: MIA-induced model rats; day 24; 3 mg/kg subcutaneously 1 hour before the measurement; positive control drug

With `CN1CC[C@]23c4c5ccc(O)c4O[C@H]2[C@@H](O)C=C[C@H]3[C@H]1C5` [Morphine, morphine, reference compound] the “Percent improvement (%)” value was 54%.

Same assay, conditions: MIA-induced model rats; day 24; 10 mg/kg subcutaneously 1 hour before the measurement; positive control drug

`COc1cccc(C2(O)CCCCC2CN(C)C)c1` (centres unmarked) [Tramadol, tramadol, reference compound] was tested, and the “Percent improvement (%)” value was 43%.

Same assay, conditions: MIA-induced model rats; right hind limb weight load ratio, day 24; test substance orally twice a day from day 14; experiment with morphine as positive control (Table 8)

First: Nc1ncc(F)cc1-c1ccc(Oc2ncc(NC(=O)Nc3cc(C(F)(F)F)ccc3-c3cccnc3)cn2)cc1 [Example 14-6, 1-(2-(4-(2-amino-5-fluoropyridin-3-yl)phenoxy)pyrimidin-5-yl)-3-(2-(pyridin-3-yl)-5-(trifluoromethyl)phenyl)urea]
Second: Nc1ncc(Cl)cc1-c1ccc(Oc2ncc(NC(=O)Nc3cc(C(F)(F)F)ccc3-c3ccccc3)cn2)cc1 [Example 15-55, 1-{2-[4-(2-amino-5-chloro-3-pyridinyl)phenoxy]-5-pyrimidinyl}-3-[4-(trifluoromethyl)-2-biphenylyl]urea]
The “Percent improvement (%)” value of the first is lower: 53% for the first, 62% for the second.

Going from `Nc1ncc(C(F)(F)F)cc1-c1ccc(Oc2ncc(NC(=O)Nc3cc(C(F)(F)F)ccc3-n3ccc(C(F)(F)F)n3)cn2)cc1` [Example 15-52, 1-(2-{4-[2-amino-5-(trifluoromethyl)-3-pyridinyl]phenoxy}-5-pyrimidinyl)-3-{5-(trifluoromethyl)-2-[3-(trifluoromethyl)-1H-pyrazol-1-yl]phenyl}urea] to `Nc1ncc(C(F)(F)F)cc1-c1ccc(Oc2ncc(NC(=O)Nc3cc(C(F)(F)F)ccc3-n3cc(Cl)cn3)cn2)cc1` [Example 15-87, 1-(2-{4-[2-amino-5-(trifluoromethyl)-3-pyridinyl]phenoxy}-5-pyrimidinyl)-3-[2-(4-chloro-1H-pyrazol-1-yl)-5-(trifluoromethyl)phenyl]urea], the “Percent improvement (%)” value falls from 60% to 57%.

Going from `Nc1ncc(Cl)cc1-c1ccc(Oc2ncc(NC(=O)Nc3cc(C(F)(F)F)ccc3-n3cc(Cl)cn3)cn2)cc1` [Example 15-63, 1-{2-[4-(2-amino-5-chloro-3-pyridinyl)phenoxy]-5-pyrimidinyl}-3-[2-(4-chloro-1H-pyrazol-1-yl)-5-(trifluoromethyl)phenyl]urea] to `CS(=O)(=O)c1ccc(C(F)(F)F)cc1NC(=O)Nc1cnc(Oc2ccc(-c3cc(Cl)cnc3N)cc2)nc1` [Example 15-104, 1-{2-[4-(2-amino-5-chloro-3-pyridinyl)phenoxy]-5-pyrimidinyl}-3-[2-(methylsulfonyl)-5-(trifluoromethyl)phenyl]urea], the “Percent improvement (%)” value rises from 53% to 54%.

First: Nc1ncc(Cl)cc1-c1ccc(Oc2ncc(NC(=O)Nc3ccc(C(F)(F)F)cc3C(F)(F)F)cn2)cc1 [Example 15-77, 1-{2-[4-(2-amino-5-chloro-3-pyridinyl)phenoxy]-5-pyrimidinyl}-3-[2,4-bis(trifluoromethyl)phenyl]urea]
Second: CS(=O)(=O)c1ccc(C(F)(F)F)cc1NC(=O)Nc1cnc(Oc2ccc(-c3cc(C(F)(F)F)cnc3N)cc2)nc1 [Example 15-98, 1-(2-{4-[2-amino-5-(trifluoromethyl)-3-pyridinyl]phenoxy}-5-pyrimidinyl)-3-[2-(methylsulfonyl)-5-(trifluoromethyl)phenyl]urea]
The “Percent improvement (%)” value of the first is lower: 55% for the first, 57% for the second.

Going from `CN(C)c1ccn2ncc(-c3ccc(Oc4ncc(NC(=O)Nc5cc(C(F)(F)F)ccc5-c5cccnc5)cn4)cc3)c2n1` [Example 21-37, 1-(2-{4-[5-(dimethylamino)pyrazolo[1,5-a]pyrimidin-3-yl]phenoxy}-5-pyrimidinyl)-3-[2-(3-pyridinyl)-5-(trifluoromethyl)phenyl]urea] to `CN(C)c1ccn2ncc(-c3ccc(Oc4ncc(NC(=O)Nc5cc(C(F)(F)F)ccc5-c5ccccc5)cn4)cc3)c2n1` [Example 21-70, 1-(2-{4-[5-(dimethylamino)pyrazolo[1,5-a]pyrimidin-3-yl]phenoxy}-5-pyrimidinyl)-3-[4-(trifluoromethyl)-2-biphenylyl]urea], the “Percent improvement (%)” value falls from 67% to 61%.

Compared with `CN(C)c1ccn2ncc(-c3ccc(Oc4ncc(NC(=O)Nc5cc(C(F)(F)F)ccc5-c5ccnn5C)cn4)cc3)c2n1` [Example 21-51, 1-(2-{4-[5-(dimethylamino)pyrazolo[1,5-a]pyrimidin-3-yl]phenoxy}-5-pyrimidinyl)-3-[2-(1-methyl-1H-pyrazol-5-yl)-5-(trifluoromethyl)phenyl]urea], `Cc1cccc(-c2ccc(C(F)(F)F)cc2NC(=O)Nc2cnc(Oc3ccc(-c4cnn5ccc(N(C)C)nc45)cc3)nc2)c1` [Example 21-73, 1-(2-{4-[5-(dimethylamino)pyrazolo[1,5-a]pyrimidin-3-yl]phenoxy}-5-pyrimidinyl)-3-[3′-methyl-4-(trifluoromethyl)-2-biphenylyl]urea] is lower in “Percent improvement (%)” value: 68% for the first, 62% for the second.

Same assay, conditions: MIA-induced model rats; right hind limb weight load ratio, day 24; test substance orally twice a day from day 14; experiment with tramadol as positive control (Table 7)

Compared with `Nc1ncc(Cl)cc1-c1ccc(Oc2ncc(NC(=O)Nc3cc(C(F)(F)F)ccc3-n3cccn3)cn2)cc1` [Example 7, 1-(2-(1H-pyrazol-1-yl)-5-(trifluoromethyl)phenyl)-3-(2-(4-(2-amino-5-chloropyridin-3-yl)phenoxy)pyrimidin-5-yl) urea], `Cc1cn(-c2ccc(C(F)(F)F)cc2NC(=O)Nc2cnc(Oc3ccc(-c4cc(Cl)cnc4N)cc3)nc2)nn1` [Example 8-1, 1-(2-(4-(2-amino-5-chloropyridin-3-yl)phenoxy)pyrimidin-5-yl)-3-(2-(4-methyl-1H-1,2,3-triazol-1-yl)-5-(trifluoromethyl)phenyl)urea] is lower in “Percent improvement (%)” value: 61% for the first, 60% for the second.

Going from `Nc1ncc(F)cc1-c1ccc(Oc2ncc(NC(=O)Nc3cc(C(F)(F)F)ccc3-n3ccnn3)cn2)cc1` [Example 14-5, 1-(2-(1H-1,2,3-triazol-1-yl)-5-(trifluoromethyl)phenyl)-3-(2-(4-(2-amino-5-fluoropyridin-3-yl)phenoxy)pyrimidin-5-yl)urea] to `Nc1ncc(Cl)cc1-c1ccc(Oc2ncc(NC(=O)Nc3ccc(C(F)(F)F)cc3Cl)cn2)cc1` [Example 15-6, 1-(2-(4-(2-amino-5-chloropyridin-3-yl)phenoxy)pyrimidin-5-yl)-3-(2-chloro-4-(trifluoromethyl)phenyl)urea], the “Percent improvement (%)” value rises from 47% to 51%.

Compared with `COc1ccn2ncc(-c3ccc(Oc4ncc(NC(=O)Nc5cc(C(F)(F)F)ccc5-c5cccnc5)cn4)cc3)c2n1` [Example 21-9, 1-(2-(4-(5-methoxypyrazolo[1,5-a]pyrimidin-3-yl)phenoxy)pyrimidin-5-yl)-3-(2-(pyridin-3-yl)-5-(trifluoromethyl)phenyl)urea], `O=C(Nc1cnc(Oc2ccc(-c3cnn4cccnc34)cc2)nc1)Nc1cc(C(F)(F)F)ccc1-c1cccnc1` [Example 21-13, l-(2-(4-(pyrazolo[1,5-a]pyrimidin-3-yl)phenoxy)pyrimidin-5-yl)-3-(2-(pyridin-3-yl)-5-(trifluoromethyl)phenyl)urea] is higher in “Percent improvement (%)” value: 64% for the first, 66% for the second.
